Data published in US20240150377A1, “MODULATORS OF CYSTIC FIBROSIS TRANSMEMBRANE CONDUCTANCE REGULATOR” (VERTEX PHARMACEUTICALS INCORPORATED, priority 2020, published 2024).
pEC50: −log10 of the molar value. Like-named read-outs stand apart in the source and are kept apart here. Blank lines part the entries; values can stand above or below the molecule they belong to.

Experiments:
[1] = target: T1, CFTR (Homo sapiens, UniProt P13569); test: standard Ussing Chamber Assay for CFTR potentiator activity; format: cell-based; details: qualitative statement
Target sequence in this assay (P13569 whole entry, species assumed): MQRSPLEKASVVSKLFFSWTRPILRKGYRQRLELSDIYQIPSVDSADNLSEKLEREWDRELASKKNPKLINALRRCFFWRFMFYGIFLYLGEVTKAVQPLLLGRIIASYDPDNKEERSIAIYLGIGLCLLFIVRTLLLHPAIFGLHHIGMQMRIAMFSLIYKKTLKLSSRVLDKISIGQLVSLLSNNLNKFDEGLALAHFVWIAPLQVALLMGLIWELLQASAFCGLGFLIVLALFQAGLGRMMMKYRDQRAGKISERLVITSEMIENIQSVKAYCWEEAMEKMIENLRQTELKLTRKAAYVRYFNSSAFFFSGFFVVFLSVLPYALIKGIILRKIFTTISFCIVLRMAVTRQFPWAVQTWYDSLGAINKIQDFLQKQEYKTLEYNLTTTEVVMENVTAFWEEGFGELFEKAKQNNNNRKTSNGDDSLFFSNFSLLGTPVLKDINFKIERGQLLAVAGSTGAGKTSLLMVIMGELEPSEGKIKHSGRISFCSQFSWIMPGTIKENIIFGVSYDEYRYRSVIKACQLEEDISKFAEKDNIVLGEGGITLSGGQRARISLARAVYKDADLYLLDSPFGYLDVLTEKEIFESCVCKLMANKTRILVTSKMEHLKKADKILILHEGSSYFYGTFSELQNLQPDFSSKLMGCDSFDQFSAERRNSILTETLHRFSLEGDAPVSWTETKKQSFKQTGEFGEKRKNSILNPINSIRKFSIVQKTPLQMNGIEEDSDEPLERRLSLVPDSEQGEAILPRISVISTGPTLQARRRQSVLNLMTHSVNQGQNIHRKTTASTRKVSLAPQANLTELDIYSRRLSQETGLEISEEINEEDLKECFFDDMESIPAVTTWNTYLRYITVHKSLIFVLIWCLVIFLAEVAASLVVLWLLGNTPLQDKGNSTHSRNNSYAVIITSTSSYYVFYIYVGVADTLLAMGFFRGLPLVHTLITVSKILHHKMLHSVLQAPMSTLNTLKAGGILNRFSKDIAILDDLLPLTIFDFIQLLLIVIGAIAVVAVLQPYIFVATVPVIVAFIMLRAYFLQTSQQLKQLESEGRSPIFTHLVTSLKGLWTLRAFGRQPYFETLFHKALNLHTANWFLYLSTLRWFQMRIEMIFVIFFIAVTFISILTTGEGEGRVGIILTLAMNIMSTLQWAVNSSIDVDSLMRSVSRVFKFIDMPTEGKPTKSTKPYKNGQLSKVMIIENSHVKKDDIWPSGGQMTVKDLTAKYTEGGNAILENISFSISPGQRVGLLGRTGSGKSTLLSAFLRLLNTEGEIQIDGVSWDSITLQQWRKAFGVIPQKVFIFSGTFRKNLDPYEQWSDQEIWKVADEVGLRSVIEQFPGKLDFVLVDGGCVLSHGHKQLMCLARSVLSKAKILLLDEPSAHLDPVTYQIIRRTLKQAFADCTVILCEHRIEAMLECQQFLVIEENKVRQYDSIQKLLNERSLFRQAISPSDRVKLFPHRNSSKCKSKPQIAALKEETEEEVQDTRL

[2] = amide bond, 13-membered ring, DMF, 25.0 °C, 0.33 h
[3] = target: T1, CFTR; test: Membrane potential dye, Enteroid Assay A; format: cell-based; details: Table 6; for Ent. A Max Activity: chloride transport as % of triple combination control (Enteroid Assay A); for pEC50: human enteroid cells, 18-24 hours, acute 10 μM forskolin and 300 nM ivacaftor, read-out: Ent. A EC50
Outline: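 % Activity: chloride transport relative to a 3 μM/3 μM corrector pair plus 300 nM acute potentiator control. Primary human enteroid cells, 18-24 h compound exposure at 37 °C; membrane potential dye (methyl oxonol) fluorescence over 15 min after forskolin (10 μM)/IBMX (100 μM)/Compound III (300 nM) stimulation in chloride-free buffer.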
Target sequence in this assay (P13569 with tags, fused parts or gaps DEL508-508): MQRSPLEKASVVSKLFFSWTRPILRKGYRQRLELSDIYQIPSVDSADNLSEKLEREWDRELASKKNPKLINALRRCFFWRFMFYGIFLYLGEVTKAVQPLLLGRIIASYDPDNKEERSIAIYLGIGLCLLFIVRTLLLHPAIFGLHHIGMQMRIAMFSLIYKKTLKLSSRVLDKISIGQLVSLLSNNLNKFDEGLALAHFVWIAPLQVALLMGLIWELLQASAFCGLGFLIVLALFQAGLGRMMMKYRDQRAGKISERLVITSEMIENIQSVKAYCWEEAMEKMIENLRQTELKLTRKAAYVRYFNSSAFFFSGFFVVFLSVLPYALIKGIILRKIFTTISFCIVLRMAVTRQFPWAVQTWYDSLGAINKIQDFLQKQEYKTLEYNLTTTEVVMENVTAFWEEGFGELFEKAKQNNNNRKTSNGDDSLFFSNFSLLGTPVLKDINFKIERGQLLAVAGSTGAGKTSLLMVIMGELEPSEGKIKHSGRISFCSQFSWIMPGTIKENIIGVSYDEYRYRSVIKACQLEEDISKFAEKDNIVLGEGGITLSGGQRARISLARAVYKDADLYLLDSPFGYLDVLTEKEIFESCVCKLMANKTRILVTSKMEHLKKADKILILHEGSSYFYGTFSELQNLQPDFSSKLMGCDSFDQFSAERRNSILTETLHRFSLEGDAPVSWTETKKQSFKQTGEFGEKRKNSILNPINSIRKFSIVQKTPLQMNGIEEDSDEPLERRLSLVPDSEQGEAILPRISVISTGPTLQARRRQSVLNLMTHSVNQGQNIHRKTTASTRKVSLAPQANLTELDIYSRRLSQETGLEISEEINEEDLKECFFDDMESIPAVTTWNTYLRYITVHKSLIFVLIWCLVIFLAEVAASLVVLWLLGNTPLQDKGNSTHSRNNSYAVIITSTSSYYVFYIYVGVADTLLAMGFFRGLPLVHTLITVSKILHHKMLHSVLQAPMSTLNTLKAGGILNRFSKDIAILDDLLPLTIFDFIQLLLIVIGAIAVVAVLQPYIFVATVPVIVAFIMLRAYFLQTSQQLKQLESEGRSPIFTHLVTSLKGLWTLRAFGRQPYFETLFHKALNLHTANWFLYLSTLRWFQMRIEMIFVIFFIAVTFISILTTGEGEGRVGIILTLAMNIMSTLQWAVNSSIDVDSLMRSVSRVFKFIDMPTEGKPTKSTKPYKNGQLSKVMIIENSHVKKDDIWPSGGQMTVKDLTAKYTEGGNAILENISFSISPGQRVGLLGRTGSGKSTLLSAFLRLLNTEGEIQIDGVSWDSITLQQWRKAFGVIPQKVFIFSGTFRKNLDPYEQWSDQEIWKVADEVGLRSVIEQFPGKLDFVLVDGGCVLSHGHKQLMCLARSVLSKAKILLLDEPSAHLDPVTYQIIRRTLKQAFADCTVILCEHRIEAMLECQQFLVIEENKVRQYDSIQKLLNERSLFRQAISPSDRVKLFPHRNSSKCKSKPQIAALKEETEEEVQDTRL

[4] = amide bond, 13-membered ring, DMF
[5] = target: T2, CFTR (Homo sapiens, UniProt P13569, DEL508-508); test: HBE2 assay: Ussing chamber assay of CFTR-mediated short-circuit currents; format: cell-based; details: F508del/MF-HBE cells, with 44 nM potentiator, 18-24 hours, 20% human serum
T2 construct: endogenous in cells; host or cells: primary human bronchial epithelial cells from CF subjects (F508del/MF-HBE), differentiated at air-liquid interface
T2 sequence (P13569 with tags, fused parts or gaps DEL508-508): as above
Outline: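 Corrector activity read as CFTR-dependent ISC (μA/cm^2): peak forskolin current minus post-inhibitor steady state. Measured at 37 °C, voltage clamp at 0 mV, on F508del/MF-HBE epithelia grown >14 days air-liquid interface in Ussing chambers.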

[6] = target: T2, CFTR; test: HBE assay: Ussing chamber assay of CFTR-mediated short-circuit currents; format: cell-based; details: HBE assay
Outline: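 CFTR-mediated Isc (μA/cm²) equals the peak response to apical 20 μM forskolin minus the residual after a 20 μM each BPO/GlyH-101/CFTR inhibitor 172 cocktail, recorded in Ussing chambers at Vhold 0 mV, 37 °C, pH 7.4, with 30 μM apical amiloride. Cells were F508del/MF HBE cultures preincubated 18-24 h with corrector (concentration range or 10 μM) plus 1 μM ivacaftor in 20% human serum.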

SMILES: C[C@@H]1CCCCC[C@](O)(C(F)(F)F)C2=NN=C(O2)c2nc(c(C(F)(F)F)cc2N)O1 [(6R,12R)-17-amino-12-methyl-6,15-bis(trifluoromethyl)-13,19-dioxa-3,4,18-triazatricyclo[12.3.1.12,5]nonadeca-1(18),2,4,14,16-pentaen-6-ol]
CFTR modulatory activity [1]: confirmed

SMILES: COCN1c2nc(cc(-c3c(C)cccc3C)n2)OC[C@@H](CC(C)C)NC(=O)c2cccc(c2)S1(=O)=O
ring closure, crude yield ([2]; from COCN(c1nc(OC[C@H](N)CC(C)C)cc(-c2c(C)cccc2C)n1)S(=O)(=O)c1cccc(C(=O)O)c1, HATU/Et3N, 106.0 mM): 100%

SMILES: CCOC(=O)CCCCN1C(=O)c2cccc(n2)S(=O)(=O)Nc2nc(cc(-c3c(C)cccc3C)n2)OC[C@H]1CC(C)(C)C
ring closure, crude yield ([2]; from CCOC(=O)CCCCN[C@@H](COc1cc(-c2c(C)cccc2C)nc(NS(=O)(=O)c2cccc(C(=O)O)n2)n1)CC(C)(C)C, HATU/DIEA, 26.1 mM): 100%

Now from value to molecule, other results behind:

Ent. A Max Activity [3]: ++ (++ is 30-60%)
pEC50 [3]: 4.52 to 5.52
SMILES: Cc1cccc(C)c1-c1cc2nc(n1)NS(=O)(=O)c1cccc(c1)C(=O)N(C)CC(CNC(=O)OC(C)(C)C)O2 (stereo not drawn) [Compound 97, tert-Butyl N-[[6-(2,6-dimethylphenyl)-12-methyl-2,2,13-trioxo-9-oxa-2λ^6-thia-3,5,12,19-tetrazatricyclo[12.3.1.14,8]nonadeca-1(18),4(19),5,7,14,16-hexaen-10-yl]methyl]carbamate]
ring closure, isolated yield ([4]; from CNCC(CNC(=O)OC(C)(C)C)Oc1cc(-c2c(C)cccc2C)nc(NS(=O)(=O)c2cccc(C(=O)O)c2)n1, HATU/DIEA, 37.9 mM, 25.0 °C, 0.25 h): 42%

HBE2 Activity at 3 μM (%) ([5]; 3 μM): +++ (+++ is >60+)
pEC50 [5]: > 6.00
Emax ([5]; read-out: HBE2 Max activity (%)): > 60%
pEC50 ([6]; read-out: HBE EC50): > 6.00
Emax ([6]; read-out: HBE Max activity (%)): > 60%
SMILES: Cc1cccc(C)c1-c1cc2nc(n1)NS(=O)(=O)c1cccc(c1)C(=O)N(Cc1ncc(OC(C)C)cn1)[C@H](CC1CCC1)CO2 [Compound 1297, (11R)-11-(Cyclobutylmethyl)-6-(2,6-dimethylphenyl)-12-[(5-isopropoxypyrimidin-2-yl)methyl]-2,2-dioxo-9-oxa-2λ^6-thia-3,5,12,19-tetrazatricyclo[12.3.1.14,8]nonadeca-1(18),4(19),5,7,14,16-hexaen-13-one]
ring closure, isolated yield ([4]; from Cc1cccc(C)c1-c1cc(OC[C@@H](CC2CCC2)NCc2ncc(OC(C)C)cn2)nc(NS(=O)(=O)c2cccc(C(=O)O)c2)n1, CDMT/NMM, 30.4 mM, 15.0 h): 58%

Ent. A Max Activity [3]: +++ (+++ is >60%)
pEC50 [3]: > 6.00
SMILES: Cc1cccc(C)c1-c1cc2nc(n1)NS(=O)(=O)c1cccc(c1)C(=O)N(C)CC(c1ccc(Br)cc1)O2 (stereo not drawn) [Compound 8, 10-(4-Bromophenyl)-6-(2,6-dimethylphenyl)-12-methyl-2,2-dioxo-9-oxa-2λ^6-thia-3,5,12,19-tetrazatricyclo[12.3.1.14,8]nonadeca-1(18),4(19),5,7,14,16-hexaen-13-one]
ring closure, isolated yield ([4]; from CNCC(Oc1cc(-c2c(C)cccc2C)nc(NS(=O)(=O)c2cccc(C(=O)O)c2)n1)c1ccc(Br)cc1, HATU/DIEA, 29.7 mM, 25.0 °C, 2.0 h, 2 steps): 61%

Ent. A Max Activity [3]: ++ (++ is 30-60%)
pEC50 [3]: 5.52 to 6.00
SMILES: Cc1cccc(C)c1-c1cc2nc(n1)NS(=O)(=O)c1cccc(c1)C(=O)N(C)CC(COCc1ccccc1)O2 (stereo not drawn) [Compound 99, 10-(benzyloxymethyl)-6-(2,6-dimethylphenyl)-12-methyl-2,2-dioxo-9-oxa-2λ^6-thia-3,5,12,19-tetrazatricyclo[12.3.1.14,8]nonadeca-1(18),4(19),5,7,14,16-hexaen-13-one]
ring closure, isolated yield ([4]; from CNCC(COCc1ccccc1)Oc1cc(-c2c(C)cccc2C)nc(NS(=O)(=O)c2cccc(C(=O)O)c2)n1, HATU/DIEA, 33.6 mM, 25.0 °C, 0.25 h): 58%
